Measurements: patent publication US20250144067A1, “PERSONALIZED STARVATION THERAPY FOR CANCER” (Faeth Therapeutics, Inc., priority 2021, published 2025)
Counter-ions that a name gives are not always drawn. Like-named read-outs stand apart in the source and are kept apart here.

What was measured:
[1] = tested on: NCI-H292 lung cancer cells; assay: FDA drug screening, complete media vs cholesterol-free media without statin (TABLE 1); format: cell-based, human
[2] = tested on: NCI-H292 lung cancer cells; assay: FDA drug screening, complete media vs cholesterol-free media with simvastatin (TABLE 2); format: cell-based, human
[3] = Complete minus Cholesterol-free, >0 enhanced anti-cancer activity, about 0 neutral, <0 antagonist
[4] = NCI-H292 cells, cholesterol-free media without statin
[5] = NCI-H292 cells, FDA library drug in cholesterol-free media with simvastatin 0.04 μM
[6] = NCI-H292 cells, FDA library drug in complete media
[7] = complete media vs cholesterol-free media + simvastatin (0.04 μM), >0 enhanced anti-cancer activity, about 0 neutral, <0 antagonist
[8] = Complete minus Cholesterol-free, […]
[9] = NCI-H292 cells, cholesterol-free media without statin, FDA drug library screen
[10] = NCI-H292 cells, complete media, FDA drug library screen
[11] = complete media vs cholesterol-free media + simvastatin (0.04 μM), […]
[12] = NCI-H292 cells, cholesterol-free media with simvastatin 0.04 μM, FDA drug library screen (TABLE 2)
[13] = NCI-H292 cells, complete media, FDA drug library screen (TABLE 2)
[14] = complete media minus cholesterol-free media + simvastatin (0.04 μM), >0 enhanced anti-cancer activity, about 0 neutral, <0 antagonist
[15] = complete vs cholesterol-free media, >0 enhanced anti-cancer activity, about 0 neutral, <0 antagonist
[16] = NCI-H292 cells, FDA drug library screen, cholesterol-free media with simvastatin 0.04 μM
[17] = NCI-H292 cells, FDA drug library screen, complete media
[18] = NCI-H292 cells, cholesterol-free media with simvastatin 0.04 μM, cell growth value in FDA drug screen
[19] = NCI-H292 cells, complete media, cell growth value in FDA drug screen
[20] = complete media minus cholesterol-free media + simvastatin, >0 enhanced anti-cancer activity, about 0 neutral, <0 antagonist
[21] = NCI-H292 cells, drug in cholesterol-free media with simvastatin 0.04 μM
[22] = NCI-H292 cells, drug in complete media
[23] = Complete minus Cholesterol-free, greater than 0 enhanced anti-cancer activity, about 0 neutral, below 0 antagonist
[24] = NCI-H292 cells, FDA drug library screen, cholesterol-free media without statin
[25] = complete vs cholesterol-free media, greater than 0 enhanced anti-cancer activity, about 0 neutral, below 0 antagonists

NC[C@H]1O[C@H](O[C@H]2[C@H](O[C@@H]3O[C@H](CO)[C@@H](O)[C@H]3O)[C@@H](O)[C@H](N)C[C@@H]2N)[C@H](N)[C@@H](O)[C@@H]1O.O=S(=O)(O)O [Ribostamycin (sulfate)]
Difference [1, 3]: −0.22
Cholesterol-free [1, 4]: 1.714
Complete ([1]; NCI-H292 cells, complete media): 1.495
Cholesterol-free media + simvastatin (0.04 μM) [2, 5]: 1.833
Complete Media [2, 6]: 1.478
Difference [2, 7]: −0.36

COc1ccnc(C[S+]([O-])c2nc3cc(OC(F)F)ccc3[n-]2)c1OC.[Na+] (stereo not shown) [Pantoprazole (sodium)]
Difference [1, 8]: −0.01
Cholesterol-free [1, 9]: 0.8197
Complete [1, 10]: 0.8107
Cholesterol-free media + simvastatin (0.04 μM) ([2]; NCI-H292 cells, cholesterol-free media with simvastatin 0.04 μM, […]): 1.655
Complete Media ([2]; NCI-H292 cells, complete media, […]): 1.781
Difference ([2]; complete media minus cholesterol-free media + simvastatin, […]): 0.13

COc1cc2c(cc1OC)[C@@H](Cc1cc(OC)c(OC)c(OC)c1)[N+](C)(CCCOC(=O)CC/C=C/CCC(=O)OCCC[N+]1(C)CCc3cc(OC)c(OC)cc3[C@H]1Cc1cc(OC)c(OC)c(OC)c1)CC2.[Cl-].[Cl-] (stereo partly shown) [Mivacurium (dichloride)]
Difference [1, 8]: −0.21
Cholesterol-free [1, 4]: 0.9248
Complete ([1]; NCI-H292 cells, complete media): 0.7178
Cholesterol-free media + simvastatin (0.04 μM) [2, 5]: 1.752
Complete Media [2, 6]: 1.463
Difference [2, 11]: −0.29

O=C(O[C@H]1C[C@H]2CC[C@@H](C1)[N+]21CCCC1)C(O)(c1ccccc1)c1ccccc1.[Cl-] [Trospium (chloride)]
Cholesterol-free [1, 9]: 1.278
Complete [1, 10]: 1.859
Difference ([1]; complete vs cholesterol-free media, […]): 0.58
Cholesterol-free media + simvastatin (0.04 μM) [2, 5]: 2.08
Complete Media [2, 6]: 1.646
Difference [2, 11]: −0.43

N[C@@H](CSCC(=O)O)C(=O)O [Carbocisteine]
Difference [1, 3]: −0.04
Cholesterol-free [1, 9]: 1.486
Complete [1, 10]: 1.447
Cholesterol-free media + simvastatin (0.04 μM) [2, 12]: 0.934
Complete Media [2, 13]: 0.9494
Difference [2, 14]: 0.02

Nc1nc2c(ncn2COCCO)c(=O)[nH]1 [Acyclovir]
Cholesterol-free [1, 9]: 0.843
Complete [1, 10]: 1.434
Difference [1, 15]: 0.59
Cholesterol-free media + simvastatin (0.04 μM) [2, 16]: 1.866
Complete Media [2, 17]: 1.782
Difference [2, 7]: −0.08

Cc1onc(-c2ccccc2)c1-c1ccc(S(N)(=O)=O)cc1 [Valdecoxib]
Difference [1, 3]: 0.02
Cholesterol-free [1, 9]: 0.9021
Complete [1, 10]: 0.9224
Cholesterol-free media + simvastatin (0.04 μM) [2, 18]: 0.9234
Complete Media [2, 19]: 0.9538
Difference [2, 20]: 0.03

COCCOC(=O)C1=C(C)NC(C)=C(C(=O)OC/C=C/c2ccccc2)C1c1cccc([N+](=O)[O-])c1 (stereo not shown) [Cilnidipine]
Cholesterol-free [1, 9]: 1.441
Complete [1, 10]: 1.574
Difference [1, 15]: 0.13
Cholesterol-free media + simvastatin (0.04 μM) [2, 21]: 0.9073
Complete Media [2, 22]: 0.7251
Difference [2, 7]: −0.18

NC1=NCC2c3ccccc3Cc3ccccc3N12 (stereo not shown) [Epinastine (hydrochloride)]
Cholesterol-free [1]: 1.415
Complete [1]: 0.8806
Difference [1]: −0.53
Cholesterol-free media + simvastatin (0.04 μM) [2]: 1.515
Complete Media [2]: 1.132
Difference [2]: −0.38

Mafenide (Acetate)
Difference [1, 23]: −0.16
Cholesterol-free [1, 24]: 1.179
Complete [1, 17]: 1.017
Cholesterol-free media + simvastatin (0.04 μM) [2, 18]: 0.8255
Complete Media [2, 19]: 0.8982
Difference [2, 20]: 0.07

CN1[C@@H]2CC[C@H]1C[C@@H](OC(=O)C(CO)c1ccccc1)C2 (stereo partly shown) [Atropine (sulfate monohydrate)]
Complete [1]: 1.139
Difference [1]: 0.08
Cholesterol-free media + simvastatin (0.04 μM) [2]: 0.6465
Complete Media [2]: 0.6938
Difference [2]: 0.05

CC(C)CN(C[C@@H](OP(=O)(O)O)[C@H](Cc1ccccc1)NC(=O)O[C@H]1CCOC1)S(=O)(=O)c1ccc(N)cc1 [Fosamprenavir]
Difference [1, 3]: −0.06
Cholesterol-free [1, 9]: 0.7855
Complete [1, 10]: 0.7241
Cholesterol-free media + simvastatin (0.04 μM) [2, 16]: 1.194
Complete Media [2, 17]: 1.12
Difference [2, 7]: −0.07

C[C@@H]1C[C@H]2[C@@H]3C[C@H](F)C4=CC(=O)C=C[C@]4(C)[C@@]3(F)[C@@H](O)C[C@]2(C)[C@@]1(OC(=O)c1ccco1)C(=O)SCF [Fluticasone furoate]
Cholesterol-free [1, 4]: 1.047
Complete ([1]; NCI-H292 cells, complete media): 0.6144
Difference [1, 25]: −0.43
Cholesterol-free media + simvastatin (0.04 μM) [2, 18]: 0.7104
Complete Media [2, 19]: 0.7486
Difference [2, 20]: 0.04

Nc1nc(O)c2ncn(COC(CO)CO)c2n1 [Ganciclovir (sodium)]
Difference [1, 3]: −0.19
Cholesterol-free [1, 4]: 0.9099
Complete ([1]; NCI-H292 cells, complete media): 0.7218
Cholesterol-free media + simvastatin (0.04 μM) [2, 12]: 1.423
Complete Media [2, 13]: 1.395
Difference [2, 14]: −0.03

NCCC[C@H](N)C(=O)O [L-Ornithine]
Cholesterol-free [1, 4]: 1.429
Complete ([1]; NCI-H292 cells, complete media): 1.042
Difference [1, 25]: −0.39
Cholesterol-free media + simvastatin (0.04 μM) [2, 16]: 0.9484
Complete Media [2, 17]: 1.47
Difference [2, 20]: 0.52

CCCCCCCC(=O)OCC(COC(=O)CCCCCCC)OC(=O)CCCCCCC [Tricaprilin]
Difference [1, 3]: 0.03
Cholesterol-free [1, 9]: 0.9476
Complete [1, 10]: 0.9746
Cholesterol-free media + simvastatin (0.04 μM) [2, 16]: 1.072
Complete Media [2, 17]: 0.9486
Difference [2, 7]: −0.12

CC(O)(P(=O)(O)O)P(=O)(O)O [Etidronic acid]
Cholesterol-free [1, 4]: 1.196
Complete ([1]; NCI-H292 cells, complete media): 0.8527
Difference [1, 25]: −0.34
Cholesterol-free media + simvastatin (0.04 μM) [2, 12]: 0.8968
Complete Media [2, 13]: 0.9014
Difference [2, 14]: 0.00

CC(=O)NS(=O)(=O)c1ccc(NC(=O)c2ccccc2C(=O)O)cc1 [Phthalylsulfacetamide]
Difference [1, 3]: −0.29
Cholesterol-free [1, 4]: 1.274
Complete ([1]; NCI-H292 cells, complete media): 0.9792
Cholesterol-free media + simvastatin (0.04 μM) [2, 5]: 1.031
Complete Media [2, 6]: 0.7098
Difference [2, 7]: −0.32

C[C@H](O)C(=O)O [L-Lactic acid]
Cholesterol-free [1, 4]: 1.267
Complete ([1]; NCI-H292 cells, complete media): 0.8145
Difference [1, 25]: −0.45
Cholesterol-free media + simvastatin (0.04 μM) [2, 21]: 1.063
Complete Media [2, 22]: 0.8704
Difference [2, 7]: −0.19

CCCCCCCCCCCC1=C(O)C(=O)C=C(O)C1=O [Embelin]
Difference ([1]; Complete minus Cholesterol-free, greater than 0 enhanced anti-cancer activity, about 0 neutral, below 0 antagonists): −0.48
Cholesterol-free ([1]; NCI-H292 cells in cholesterol-free media without statin): 1.567
Complete ([1]; NCI-H292 cells in complete media): 1.082
Cholesterol-free media + simvastatin (0.04 μM) [2, 12]: 0.8998
Complete Media [2, 13]: 0.8298
Difference [2, 14]: −0.07

Fluvoxamine (maleate)
Difference [1, 23]: −0.11
Cholesterol-free [1, 24]: 1.142
Cholesterol-free media + simvastatin (0.04 μM) [2, 12]: 0.9929
Complete Media [2, 13]: 0.9426
Difference [2, 14]: −0.05

COc1ccc(CCN(C)CCCC(C#N)(c2ccc(OC)c(OC)c2)C(C)C)cc1OC (stereo not shown) [Verapamil (hydrochloride)]
Cholesterol-free [1]: 0.9873
Complete [1]: 0.8558
Difference [1]: −0.13
Cholesterol-free media + simvastatin (0.04 μM) [2]: 1.071
Complete Media [2]: 1.013
Difference [2]: −0.06
